From patent US5792775A (priority 1996, dated 1998)
Like-named read-outs stand apart in the source and are kept apart here.

Experiments:
[1] = system: locomotor activity in mice; test: Locomotor (ambulatory) activity; assay type: in vivo, Swiss Webster mice; details: i.p., FIGS. 5-8
From the text: Ambulatory activity of Male Swiss Webster mice (Taconic Farms) were studied in 40 cm^3 clear acrylic chambers. The acrylic chambers were placed inside monitors (Omnitech Electronics, Columbus, Ohio) that were equipped with light sensitive detectors, spaced 2.5 cm apart along two perpendicular walls. Mounted on the opposing walls were infrared light sources that were directed at the detectors. One count of horizontal activity was registered each time the subject interrupted two successive beams. Repetitive interruptions of the same beam due to behaviors, such as head bobbing or grooming, were not counted. Mice were injected and immediately placed in the apparatus for 60 min. Injections were administered i.p. in volumes of 1 mL/ 100 g. Each dose was studied in eight mice, and mice were used only once.
Horizontal activity counts are shown for the first 30 min of the session in which the maximal stimulation of activity was obtained. Each dose-effect curve was analyzed using standard analysis of variance (ANOVA) and post-hoc testing determine significance of effects at individual doses.

[2] = animal models, literature; cited from earlier work
[3] = molecular target: norepinephrine transporter (NET) (Rattus norvegicus, UniProt Q63380); test: biochemical; assay type: binding; details: for inhibition at 10 µM: read-out: NET (% I@10 μM)
[4] = molecular target: serotonin transporter (5HTT) (Rattus norvegicus, UniProt P31652); test: Serotonin transporter binding ([^3 H]citalopram), NOVASCREEN; details: for inhibition at 10 µM: read-out: 5HTT (% I@10 μM)
From the text: (§1) Serotonin (5-HTT), norepinephrine transporter (NET) and muscarinic m1 and m2 receptor binding data were provided by NOVASCREEN.

[5] = system: dopamine uptake, rat caudate putamen; assay type: biochemical; details: Table V; rat caudate putamen; read-out: [^3 H]DA Uptake Inhibition IC50
[6] = molecular target: T1, dopamine transporter (DAT) (Rattus norvegicus, UniProt P23977); details: read-out: DAT Ki, nM (% error); cited from earlier work
T1 construct: brains removed to an ice-cooled dish for dissection of the caudate putamen; from tissue; host or cells: rat caudate putamen, washed membranes of male Sprague-Dawley rats (Taconic)

[7] = system: norepinephrine transporter (NET); test: biochemical; assay type: binding; details: DAT vs. NET
[8] = molecular target: T1, dopamine transporter (DAT); test: Displacement of [^3 H]WIN 35,428 binding (Dopamine Transporter Binding Assay); details: Table III; displacement of [^3 H]WIN 35,428, rat caudate putamen; % error in parentheses
[9] = molecular target: T2, muscarinic m1 receptors (Rattus norvegicus, UniProt P08482); test: biochemical; assay type: binding
T2 sequence (P08482 1-460): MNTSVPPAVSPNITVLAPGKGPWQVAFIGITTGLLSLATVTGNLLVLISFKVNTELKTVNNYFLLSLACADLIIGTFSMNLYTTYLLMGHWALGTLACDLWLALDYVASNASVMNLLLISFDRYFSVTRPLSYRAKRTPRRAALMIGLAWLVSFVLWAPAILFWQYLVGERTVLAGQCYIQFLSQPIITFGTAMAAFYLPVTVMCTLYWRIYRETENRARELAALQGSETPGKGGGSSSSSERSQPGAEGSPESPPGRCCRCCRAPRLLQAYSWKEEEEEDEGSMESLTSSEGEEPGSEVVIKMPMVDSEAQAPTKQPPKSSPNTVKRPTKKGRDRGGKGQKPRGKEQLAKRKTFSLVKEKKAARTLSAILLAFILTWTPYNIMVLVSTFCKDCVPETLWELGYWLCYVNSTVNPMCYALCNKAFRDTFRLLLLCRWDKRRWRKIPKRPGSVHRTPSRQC

[10] = molecular target: T3, muscarinic m2 receptors (Rattus norvegicus, UniProt P10980); test: Muscarinic m2 receptor binding ([^3 H]AFDX 384), NOVASCREEN
T3 sequence (P10980 1-466): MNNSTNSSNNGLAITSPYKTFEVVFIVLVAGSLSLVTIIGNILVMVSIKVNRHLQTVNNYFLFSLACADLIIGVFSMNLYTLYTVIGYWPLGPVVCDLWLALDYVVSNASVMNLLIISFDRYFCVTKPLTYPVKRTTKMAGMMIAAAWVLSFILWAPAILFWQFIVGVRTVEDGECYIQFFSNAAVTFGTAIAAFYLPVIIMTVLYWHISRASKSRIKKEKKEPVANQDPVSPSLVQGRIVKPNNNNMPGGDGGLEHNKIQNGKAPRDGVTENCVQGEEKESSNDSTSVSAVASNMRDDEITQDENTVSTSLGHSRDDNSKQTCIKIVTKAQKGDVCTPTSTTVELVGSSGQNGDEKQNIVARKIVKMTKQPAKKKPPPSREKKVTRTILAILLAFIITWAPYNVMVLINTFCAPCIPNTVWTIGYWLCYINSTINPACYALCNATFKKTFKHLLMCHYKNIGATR
From the text: as §1

norepinephrine transporter (NET) (Rattus norvegicus, UniProt Q63380), sequence (Q63380 1-617): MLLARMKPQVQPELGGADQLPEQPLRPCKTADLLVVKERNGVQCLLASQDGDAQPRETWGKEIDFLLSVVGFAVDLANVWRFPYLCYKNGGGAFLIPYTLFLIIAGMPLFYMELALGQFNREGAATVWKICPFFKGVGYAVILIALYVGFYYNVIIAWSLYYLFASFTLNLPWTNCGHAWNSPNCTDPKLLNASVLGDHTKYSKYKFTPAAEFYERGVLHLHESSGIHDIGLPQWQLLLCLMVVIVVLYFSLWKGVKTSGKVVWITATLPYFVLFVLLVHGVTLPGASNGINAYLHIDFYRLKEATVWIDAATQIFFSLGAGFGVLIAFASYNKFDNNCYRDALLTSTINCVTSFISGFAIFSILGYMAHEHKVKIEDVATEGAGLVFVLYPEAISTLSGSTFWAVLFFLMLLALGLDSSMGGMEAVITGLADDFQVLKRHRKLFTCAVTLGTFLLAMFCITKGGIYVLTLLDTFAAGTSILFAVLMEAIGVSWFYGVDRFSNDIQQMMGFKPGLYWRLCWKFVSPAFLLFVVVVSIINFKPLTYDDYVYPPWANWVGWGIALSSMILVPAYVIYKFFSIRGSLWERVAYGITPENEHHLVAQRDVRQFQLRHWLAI
T1 sequence (P23977 whole entry): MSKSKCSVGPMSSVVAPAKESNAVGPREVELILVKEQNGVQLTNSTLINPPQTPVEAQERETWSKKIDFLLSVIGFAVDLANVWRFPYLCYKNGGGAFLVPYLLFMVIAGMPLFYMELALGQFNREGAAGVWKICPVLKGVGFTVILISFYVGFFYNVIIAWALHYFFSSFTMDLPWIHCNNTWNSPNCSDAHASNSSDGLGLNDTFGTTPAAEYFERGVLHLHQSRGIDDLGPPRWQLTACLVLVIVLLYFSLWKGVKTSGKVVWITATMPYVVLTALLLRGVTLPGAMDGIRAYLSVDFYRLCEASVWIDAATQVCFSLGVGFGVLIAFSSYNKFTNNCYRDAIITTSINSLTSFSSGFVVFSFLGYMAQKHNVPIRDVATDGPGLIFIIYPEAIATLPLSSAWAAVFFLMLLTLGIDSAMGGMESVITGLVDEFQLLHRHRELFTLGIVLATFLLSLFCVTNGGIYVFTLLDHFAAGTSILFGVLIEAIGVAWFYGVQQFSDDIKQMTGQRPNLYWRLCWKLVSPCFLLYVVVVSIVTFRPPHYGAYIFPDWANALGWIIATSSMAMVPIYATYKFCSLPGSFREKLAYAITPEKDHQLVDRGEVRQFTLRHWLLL
serotonin transporter (5HTT), sequence (P31652 whole entry): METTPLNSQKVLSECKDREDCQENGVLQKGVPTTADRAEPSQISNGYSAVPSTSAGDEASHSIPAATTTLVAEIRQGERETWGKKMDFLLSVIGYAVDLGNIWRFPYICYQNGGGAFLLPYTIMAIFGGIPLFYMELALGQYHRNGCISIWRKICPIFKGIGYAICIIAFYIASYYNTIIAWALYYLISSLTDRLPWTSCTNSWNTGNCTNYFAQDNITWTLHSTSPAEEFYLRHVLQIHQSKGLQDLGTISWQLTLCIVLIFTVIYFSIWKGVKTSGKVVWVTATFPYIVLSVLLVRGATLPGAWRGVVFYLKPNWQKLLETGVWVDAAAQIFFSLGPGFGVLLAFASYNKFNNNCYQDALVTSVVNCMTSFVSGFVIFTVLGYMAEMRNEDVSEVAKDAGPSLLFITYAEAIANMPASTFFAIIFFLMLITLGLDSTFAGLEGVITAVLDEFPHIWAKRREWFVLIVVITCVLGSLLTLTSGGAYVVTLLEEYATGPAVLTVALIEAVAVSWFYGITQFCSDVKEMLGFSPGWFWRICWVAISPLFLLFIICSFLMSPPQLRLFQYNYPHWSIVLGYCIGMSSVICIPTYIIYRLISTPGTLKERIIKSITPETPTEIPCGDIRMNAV

## CN1[C@@H]2CC[C@H]1C[C@@H](OC(c1ccccc1)c1ccccc1)C2 [Compound 2, 3α-(diphenylmethoxy)-1αH,5αH-tropane]
[1]
  stimulation of locomotor activity: do not produce locomotor stimulant activity
[2]
  CNS stimulatory activity: exhibits CNS stimulatory activity in animal models

## CN1[C@@H]2CC[C@H]1C[C@H](OC(c1ccccc1)c1ccc(Cl)cc1)C2 (stereo partly drawn) [Compound 10, 3β-4'-Chloro-(diphenylmethoxy)tropane]
[3]
  inhibition at 10 µM: 27.9%
[4]
  inhibition at 10 µM: 37.2%
[5]
  IC50: 3.52 µM
[6]
  Ki: 854 nM

## CN1[C@@H]2CC[C@H]1C[C@@H](OC(c1ccc(F)cc1)c1ccc(F)cc1)C2 [Compound 7c, 4',4"-difluoro-3α-(diphenylmethoxy)tropane]
[3]
  Ki: > 8.5 µM
  inhibition at 10 µM: 30%
[3]; read-out: NET, Ki, Table IV
  Ki: > 8.5 µM
[7]
  potency at dopamine transporter as compared to norepinephrine transporter: > 700 fold
[4]; Table III, footnote d, read-out: 5HTT Ki value in nM (bracketed)
  Ki: > 2440 nM
[4]
  inhibition at 10 µM: 62%

## CCc1ccc(C(O[C@H]2C[C@H]3CC[C@@H](C2)N3C)c2ccccc2)cc1 (stereo partly drawn) [Compound 7q]
[8]
  Ki: 520 nM
[3]
  inhibition at 10 µM: 32.7%
[4]
  inhibition at 10 µM: 42.7%
[9]; Table III, read-out: m1, Ki
  Ki: 0.0126 µM
[10]; Table III
  Ki: 0.703 µM
[5]
  IC50: 0.984 µM

## CN1[C@@H]2CC[C@H]1C[C@@H](OC(c1ccc(Br)cc1)c1ccc(Br)cc1)C2 [Compound 7i]
[8]
  Ki: 91.6 nM
[3]
  inhibition at 10 µM: 41.1%
[4]
  inhibition at 10 µM: 41%
[9]
  lower affinity for muscarinic m1 receptors than the parent benztropine: > 70 fold
[10]; Table III footnote b, 10 μM, read-out: m2, % Inhibition of radiolabeled ligand binding
  inhibition at 10 µM: 66%
[5]
  IC50: 0.034 µM
